Reference: ChEMBL document CHEMBL1137023, “Synthesis and antibacterial activity of arylpiperazinyl oxazolidinones with diversification of the N-substituents” (2004)
≈ marks a conversion by molar mass, not a printed value.

Tested on: Enterococcus faecalis
Experiment: Minimum inhibitory concentration against Enterococcus faecalis ATCC 29212
Format: functional
Conditions: not given

Compound	MIC
NC(=S)NC[C@H]1CN(c2ccc(N3CCN(c4ccccc4Cl)CC3)c(F)c2)C(=O)O1	0.25 µg/mL (≈ 0.539 µM)
CC(=S)NC[C@H]1CN(c2ccc(N3CCN(c4ccccc4Cl)CC3)c(F)c2)C(=O)O1	> 64 µg/mL
Cc1ccccc1N1CCN(c2ccc(N3C[C@H](CNC(N)=S)OC3=O)cc2F)CC1	0.25 µg/mL (≈ 0.564 µM)
NC(=S)NC[C@H]1CN(c2ccc(N3CCN(c4ccccn4)CC3)c(F)c2)C(=O)O1	0.25 µg/mL (≈ 0.581 µM)
NC(=S)NC[C@H]1CN(c2ccc(N3CCN(c4ccccc4)CC3)cc2)C(=O)O1	0.12 µg/mL (≈ 0.292 µM)
CC(=S)NC[C@H]1CN(c2ccc(N3CCN(c4cccc(Cl)c4)CC3)c(F)c2)C(=O)O1	0.06 µg/mL (≈ 0.13 µM)
CSC(=S)NC[C@H]1CN(c2ccc(N3CCN(c4cccc(Cl)c4)CC3)c(F)c2)C(=O)O1	0.5 µg/mL (≈ 1.01 µM)
NC(=S)NC[C@H]1CN(c2ccc(N3CCN(c4ccc(Cl)cc4)CC3)c(F)c2)C(=O)O1	0.5 µg/mL (≈ 1.08 µM)
NC(=S)NC[C@H]1CN(c2ccc(N3CCN(c4cccc(C(F)(F)F)c4)CC3)c(F)c2)C(=O)O1	0.25 µg/mL (≈ 0.502 µM)
O=C1O[C@@H](COc2ccccn2)CN1c1ccc(N2CCN(c3ccccc3Cl)CC2)c(F)c1	> 64 µg/mL
COc1ccccc1N1CCN(c2ccc(N3C[C@H](CNC(N)=S)OC3=O)cc2F)CC1	0.25 µg/mL (≈ 0.544 µM)
COC(=S)NC[C@H]1CN(c2ccc(N3CCN(c4cccc(Cl)c4)CC3)c(F)c2)C(=O)O1	0.12 µg/mL (≈ 0.251 µM)
NC(=S)NC[C@H]1CN(c2ccc(N3CCN(c4ccccc4)CC3)c(F)c2)C(=O)O1	0.12 µg/mL (≈ 0.279 µM)
NC(=S)NC[C@H]1CN(c2ccc(N3CCN(c4cccc(Cl)c4)CC3)c(F)c2)C(=O)O1	0.06 µg/mL (≈ 0.129 µM)
COC(=S)NC[C@H]1CN(c2ccc(N3CCN(c4cccc(OC)c4)CC3)c(F)c2)C(=O)O1	0.12 µg/mL (≈ 0.253 µM)

Tested on: Staphylococcus aureus
Experiment: Minimum inhibitory concentration against Staphylococcus aureus ATCC 25923
Format: functional
Conditions: not given

Compound	MIC
NC(=S)NC[C@H]1CN(c2ccc(N3CCN(c4ccccc4Cl)CC3)c(F)c2)C(=O)O1	0.12 µg/mL (≈ 0.259 µM)
CC(=S)NC[C@H]1CN(c2ccc(N3CCN(c4ccccc4Cl)CC3)c(F)c2)C(=O)O1	0.12 µg/mL (≈ 0.259 µM)
Cc1ccccc1N1CCN(c2ccc(N3C[C@H](CNC(N)=S)OC3=O)cc2F)CC1	0.12 µg/mL (≈ 0.271 µM)
NC(=S)NC[C@H]1CN(c2ccc(N3CCN(c4ccccn4)CC3)c(F)c2)C(=O)O1	0.12 µg/mL (≈ 0.279 µM)
NC(=S)NC[C@H]1CN(c2ccc(N3CCN(c4ccccc4)CC3)cc2)C(=O)O1	0.12 µg/mL (≈ 0.292 µM)
CC(=S)NC[C@H]1CN(c2ccc(N3CCN(c4cccc(Cl)c4)CC3)c(F)c2)C(=O)O1	0.03 µg/mL (≈ 0.0648 µM)
CSC(=S)NC[C@H]1CN(c2ccc(N3CCN(c4cccc(Cl)c4)CC3)c(F)c2)C(=O)O1	0.12 µg/mL (≈ 0.242 µM)
NC(=S)NC[C@H]1CN(c2ccc(N3CCN(c4ccc(Cl)cc4)CC3)c(F)c2)C(=O)O1	0.12 µg/mL (≈ 0.259 µM)
NC(=S)NC[C@H]1CN(c2ccc(N3CCN(c4cccc(C(F)(F)F)c4)CC3)c(F)c2)C(=O)O1	0.25 µg/mL (≈ 0.502 µM)
O=C1O[C@@H](COc2ccccn2)CN1c1ccc(N2CCN(c3ccccc3Cl)CC2)c(F)c1	> 64 µg/mL
COc1ccccc1N1CCN(c2ccc(N3C[C@H](CNC(N)=S)OC3=O)cc2F)CC1	0.25 µg/mL (≈ 0.544 µM)
COC(=S)NC[C@H]1CN(c2ccc(N3CCN(c4cccc(Cl)c4)CC3)c(F)c2)C(=O)O1	0.12 µg/mL (≈ 0.251 µM)
NC(=S)NC[C@H]1CN(c2ccc(N3CCN(c4ccccc4)CC3)c(F)c2)C(=O)O1	0.06 µg/mL (≈ 0.14 µM)
NC(=S)NC[C@H]1CN(c2ccc(N3CCN(c4cccc(Cl)c4)CC3)c(F)c2)C(=O)O1	0.02 µg/mL (≈ 0.0431 µM)
COC(=S)NC[C@H]1CN(c2ccc(N3CCN(c4cccc(OC)c4)CC3)c(F)c2)C(=O)O1	0.12 µg/mL (≈ 0.253 µM)

Tested on: not listed separately
Experiment: Minimum inhibitory concentration against […] ATCC 13813
Format: functional
Conditions: Streptococcus agalactiae

Compound	MIC
NC(=S)NC[C@H]1CN(c2ccc(N3CCN(c4ccccc4Cl)CC3)c(F)c2)C(=O)O1	0.12 µg/mL (≈ 0.259 µM)
CC(=S)NC[C@H]1CN(c2ccc(N3CCN(c4ccccc4Cl)CC3)c(F)c2)C(=O)O1	0.12 µg/mL (≈ 0.259 µM)
Cc1ccccc1N1CCN(c2ccc(N3C[C@H](CNC(N)=S)OC3=O)cc2F)CC1	0.12 µg/mL (≈ 0.271 µM)
NC(=S)NC[C@H]1CN(c2ccc(N3CCN(c4ccccn4)CC3)c(F)c2)C(=O)O1	0.12 µg/mL (≈ 0.279 µM)
NC(=S)NC[C@H]1CN(c2ccc(N3CCN(c4ccccc4)CC3)cc2)C(=O)O1	0.25 µg/mL (≈ 0.607 µM)
CC(=S)NC[C@H]1CN(c2ccc(N3CCN(c4cccc(Cl)c4)CC3)c(F)c2)C(=O)O1	0.03 µg/mL (≈ 0.0648 µM)
CSC(=S)NC[C@H]1CN(c2ccc(N3CCN(c4cccc(Cl)c4)CC3)c(F)c2)C(=O)O1	1 µg/mL (≈ 2.02 µM)
NC(=S)NC[C@H]1CN(c2ccc(N3CCN(c4ccc(Cl)cc4)CC3)c(F)c2)C(=O)O1	0.12 µg/mL (≈ 0.259 µM)
NC(=S)NC[C@H]1CN(c2ccc(N3CCN(c4cccc(C(F)(F)F)c4)CC3)c(F)c2)C(=O)O1	0.12 µg/mL (≈ 0.241 µM)
O=C1O[C@@H](COc2ccccn2)CN1c1ccc(N2CCN(c3ccccc3Cl)CC2)c(F)c1	> 64 µg/mL
COc1ccccc1N1CCN(c2ccc(N3C[C@H](CNC(N)=S)OC3=O)cc2F)CC1	0.25 µg/mL (≈ 0.544 µM)
COC(=S)NC[C@H]1CN(c2ccc(N3CCN(c4cccc(Cl)c4)CC3)c(F)c2)C(=O)O1	0.12 µg/mL (≈ 0.251 µM)
NC(=S)NC[C@H]1CN(c2ccc(N3CCN(c4ccccc4)CC3)c(F)c2)C(=O)O1	0.06 µg/mL (≈ 0.14 µM)
NC(=S)NC[C@H]1CN(c2ccc(N3CCN(c4cccc(Cl)c4)CC3)c(F)c2)C(=O)O1	0.008 µg/mL (≈ 0.0172 µM)
COC(=S)NC[C@H]1CN(c2ccc(N3CCN(c4cccc(OC)c4)CC3)c(F)c2)C(=O)O1	0.12 µg/mL (≈ 0.253 µM)

Tested on: Staphylococcus aureus
Experiment: Antibacterial activity against Staphylococcus aureus was evaluated in infected mice
Format: functional
Conditions: not given

Compound	ED50
CC(=S)NC[C@H]1CN(c2ccc(N3CCN(c4cccc(Cl)c4)CC3)c(F)c2)C(=O)O1	> 16 mg/kg
NC(=S)NC[C@H]1CN(c2ccc(N3CCN(c4cccc(Cl)c4)CC3)c(F)c2)C(=O)O1	> 16 mg/kg

Tested on: Streptococcus pyogenes
Experiment: Minimum inhibitory concentration against Streptococcus pyogenes ATCC 8668
Conditions: not given

Compound	MIC
O=C1O[C@@H](COc2ccccn2)CN1c1ccc(N2CCN(c3ccccc3Cl)CC2)c(F)c1	> 64 µg/mL
